{"source": "patent US20230416205A1", "about": "“COMPOUNDS, COMPOSITIONS, AND METHODS” (Denali Therapeutics Inc, priority 2020, published 2023)", "test_system": "NLRP3", "assay": "IL-1β secretion assay in PMA-differentiated, LPS/nigericin-stimulated THP-1 cells (384-well, ELISA read-out)", "type": "cell-based, human", "details": "Homo sapiens", "how_it_was_run": "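THP-1 cells differentiated with PMA (5 ng/mL, 40 h), primed in serum-free medium with 25 ng/mL LPS for 2 h, treated with compounds 1 h (0.5% DMSO), then stimulated with nigericin for 2 h at 37 °C. Supernatant IL-1β measured by ELISA; responses normalized to LPS+5 μM nigericin and LPS-only controls.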", "key": {"[1]": {"details": "THP-1, Table 4, IL-1β secretion, LPS/nigericin-stimulated THP-1 cells, read-out: IC50"}}, "note": "pIC50: −log10 of the molar value. Read-outs that look alike come from different tables or passages of the source."}
{"smiles": "O=C(CN1CC2(CC2)c2cc(Br)ccc2C1=O)Nc1ncc(C2CCCO2)cn1", "note": "(stereo not drawn) [Example 359, 2-(6-bromo-1-oxospiro[3H-isoquinoline-4,1′-cyclopropane]-2-yl)-N-[5-(oxolan-2-yl)pyrimidin-2-yl]acetamide]", "values": [{"measurement": "pIC50", "setting": "[1]", "result": 6.22}]}
{"smiles": "CN1CCC[C@@H](NC(=O)CN2CC3(CC3)c3cc(Br)ccc3C2=O)C1", "note": "[Example 360, 2-(6-bromo-1-oxospiro[3H-isoquinoline-4,1′-cyclopropane]-2-yl)-N-[(3R)-1-methylpiperidin-3-yl]acetamide]", "values": [{"measurement": "pIC50", "setting": "[1]", "result": 5.46}]}
{"smiles": "O=C(CN1CC2(CC2)c2cc(Br)ccc2C1=O)Nc1nc2ccc(C(F)(F)F)cc2o1", "note": "[Example 361, 2-(6-bromo-1-oxospiro[3H-isoquinoline-4,1′-cyclopropane]-2-yl)-N-[6-(trifluoromethyl)-1,3-benzoxazol-2-yl]acetamide]", "values": [{"measurement": "pIC50", "setting": "[1]", "result": 6.07}]}
{"smiles": "O=C(CN1CC2(CC2)c2cc(Br)ccc2C1=O)Nc1cc2n(n1)CCOC2", "note": "[Example 362, 2-(6-bromo-1-oxospiro[3H-isoquinoline-4,1′-cyclopropane]-2-yl)-N-(6,7-dihydro-4H-pyrazolo[5,1-c][1,4]oxazin-2-yl)acetamide]", "values": [{"measurement": "pIC50", "setting": "[1]", "result": 5.84}]}
{"smiles": "O=C(CN1CC2(CC2)c2cc(Br)ccc2C1=O)Nc1nccc2nccn12", "note": "[Example 363, 2-(6-bromo-1-oxospiro[3H-isoquinoline-4,1′-cyclopropane]-2-yl)-N-imidazo[1,2-c]pyrimidin-5-ylacetamide]", "values": [{"measurement": "pIC50", "setting": "[1]", "result": 5.18}]}
{"smiles": "O=C(CN1CC2(CC2)c2cc(Br)ccc2C1=O)Nc1ncc(N2CCCC2)cn1", "note": "[Example 364, 2-(6-bromo-1-oxospiro[3H-isoquinoline-4,1′-cyclopropane]-2-yl)-N-(5-pyrrolidin-1-ylpyrimidin-2-yl)acetamide]", "values": [{"measurement": "pIC50", "setting": "[1]", "result": 5.59}]}
{"smiles": "O=C(CN1CC2(CC2)c2cc(Br)ccc2C1=O)N[C@@H]1CCCN(C2COC2)C1", "note": "[Example 365, 2-(6-bromo-1-oxospiro[3H-isoquinoline-4,1′-cyclopropane]-2-yl)-N-[(3R)-1-(oxetan-3-yl)piperidin-3-yl]acetamide]", "values": [{"measurement": "pIC50", "setting": "[1]", "result": 5.67}]}
{"smiles": "O=C(CN1CC2(CC2)c2cc(Br)ccc2C1=O)NC1CCN(CCC(F)(F)F)CC1", "note": "[Example 366, 2-(6-bromo-1-oxospiro[3H-isoquinoline-4,1′-cyclopropane]-2-yl)-N-[1-(3,3,3-trifluoropropyl)piperidin-4-yl]acetamide]", "values": [{"measurement": "pIC50", "setting": "[1]", "result": 4.72}]}
{"smiles": "O=C(CN1CC2(CC2)c2cc(Br)ccc2C1=O)NC1CCN(CC(F)F)CC1", "note": "[Example 367, 2-(6-bromo-1-oxospiro[3H-isoquinoline-4,1′-cyclopropane]-2-yl)-N-[1-(2,2-difluoroethyl)piperidin-4-yl]acetamide]", "values": [{"measurement": "pIC50", "setting": "[1]", "result": 4.93}]}
{"smiles": "Cc1cc(NC(=O)CN2CC3(CC3)c3cc(Br)ccc3C2=O)nc2ccnn12", "note": "[Example 368, 2-(6-bromo-1-oxospiro[3H-isoquinoline-4,1′-cyclopropane]-2-yl)-N-(7-methylpyrazolo[1,5-a]pyrimidin-5-yl)acetamide]", "values": [{"measurement": "pIC50", "setting": "[1]", "result": 5.80}]}
{"smiles": "O=C(CN1CC2(CC2)c2cc(Br)ccc2C1=O)NC1CCN(c2cccnc2)CC1", "note": "[Example 369, 2-(6-bromo-1-oxospiro[3H-isoquinoline-4,1′-cyclopropane]-2-yl)-N-(1-pyridin-3-ylpiperidin-4-yl)acetamide]", "values": [{"measurement": "pIC50", "setting": "[1]", "result": 5.19}]}
{"smiles": "CN1CCC(NC(=O)CN2CC3(CC3)c3cc(Br)ccc3C2=O)CC12CC2", "note": "(stereo not drawn) [Example 370, 2-(6-bromo-1-oxospiro[3H-isoquinoline-4,1′-cyclopropane]-2-yl)-N-(4-methyl-4-azaspiro[2.5]octan-7-yl)acetamide]", "values": [{"measurement": "pIC50", "setting": "[1]", "result": 5.22}]}
{"smiles": "Cn1cnc(NC(=O)CN2CC3(CC3)c3cc(Br)ccc3C2=O)n1", "note": "[Example 371, 2-(6-bromo-1-oxospiro[3H-isoquinoline-4,1′-cyclopropane]-2-yl)-N-(1-methyl-1,2,4-triazol-3-yl)acetamide]", "values": [{"measurement": "pIC50", "setting": "[1]", "result": 5.84}]}
{"smiles": "O=C(CN1CC2(CC2)c2cc(Br)ccc2C1=O)NC1CN2CCC1CC2", "note": "(stereo not drawn) [Example 372, N-(1-azabicyclo[2.2.2]octan-3-yl)-2-(6-bromo-1-oxospiro[3H-isoquinoline-4,1′-cyclopropane]-2-yl)acetamide]", "values": [{"measurement": "pIC50", "setting": "THP-1", "result": 4.65}]}
{"smiles": "O=C(CN1CC2(CC2)c2cc(Br)ccc2C1=O)Nc1nc2n(n1)CCCC2", "note": "[Example 373, 2-(6-bromo-1-oxospiro[3H-isoquinoline-4,1′-cyclopropane]-2-yl)-N-(5,6,7,8-tetrahydro-[1,2,4]triazolo[1,5-a]pyridin-2-yl)acetamide]", "values": [{"measurement": "pIC50", "setting": "[1]", "result": 5.80}]}
{"smiles": "O=C(CN1CC2(CC2)c2cc(Br)ccc2C1=O)Nc1ccn2ccnc2n1", "note": "[Example 374, 2-(6-bromo-1-oxospiro[3H-isoquinoline-4,1′-cyclopropane]-2-yl)-N-imidazo[1,2-a]pyrimidin-7-ylacetamide]", "values": [{"measurement": "pIC50", "setting": "[1]", "result": 5.02}]}
{"smiles": "O=C(CN1CC2(CC2)c2cc(Br)ccc2C1=O)NC1CCN(CC(F)(F)F)CC1", "note": "[Example 375, 2-(6-bromo-1-oxospiro[3H-isoquinoline-4,1′-cyclopropane]-2-yl)-N-[1-(2,2,2-trifluoroethyl)piperidin-4-yl]acetamide]", "values": [{"measurement": "pIC50", "setting": "[1]", "result": 4.95}]}
{"smiles": "Cc1nc(NC(=O)CN2CC3(CC3)c3cc(Br)ccc3C2=O)nn1C", "note": "[Example 376, 2-(6-bromo-1-oxospiro[3H-isoquinoline-4,1′-cyclopropane]-2-yl)-N-(1,5-dimethyl-1,2,4-triazol-3-yl)acetamide]", "values": [{"measurement": "pIC50", "setting": "[1]", "result": 5.74}]}
{"smiles": "O=C(CN1CC2(CC2)c2cc(Br)ccc2C1=O)Nc1noc2ccccc12", "note": "[Example 377, N-(1,2-benzoxazol-3-yl)-2-(6-bromo-1-oxospiro[3H-isoquinoline-4,1′-cyclopropane]-2-yl)acetamide]", "values": [{"measurement": "pIC50", "setting": "[1]", "result": 5.65}]}
{"smiles": "CCOC(=O)N1CCC(NC(=O)CN2CC3(CC3)c3cc(Br)ccc3C2=O)CC1", "note": "[Example 378, ethyl 4-[[2-(6-bromo-1-oxospiro[3H-isoquinoline-4,1′-cyclopropane]-2-yl)acetyl]amino]piperidine-1-carboxylate]", "values": [{"measurement": "pIC50", "setting": "[1]", "result": 5.30}]}
{"smiles": "O=C(CN1CC2(CC2)c2cc(Br)ccc2C1=O)NC1CCN(c2ccccn2)CC1", "note": "[Example 379, 2-(6-bromo-1-oxospiro[3H-isoquinoline-4,1′-cyclopropane]-2-yl)-N-(1-pyridin-2-ylpiperidin-4-yl)acetamide]", "values": [{"measurement": "pIC50", "setting": "[1]", "result": 5.05}]}
{"smiles": "O=C(CN1CC2(CC2)c2cc(Br)ccc2C1=O)NC1CCN(c2ncccn2)CC1", "note": "[Example 380, 2-(6-bromo-1-oxospiro[3H-isoquinoline-4,1′-cyclopropane]-2-yl)-N-(1-pyrimidin-2-ylpiperidin-4-yl)acetamide]", "values": [{"measurement": "pIC50", "setting": "[1]", "result": 4.94}]}
{"smiles": "O=C(CN1CC2(CC2)c2cc(Br)ccc2C1=O)N[C@@H]1CCN(C2COC2)C1", "note": "[Example 381, 2-(6-bromo-1-oxospiro[3H-isoquinoline-4,1′-cyclopropane]-2-yl)-N-[(3R)-1-(oxetan-3-yl)pyrrolidin-3-yl]acetamide]", "values": [{"measurement": "pIC50", "setting": "[1]", "result": 4.92}]}
{"smiles": "COCC1CC(NC(=O)CN2CC3(CC3)c3cc(Br)ccc3C2=O)C1", "note": "(stereo not drawn) [Example 382, 2-(6-bromo-1-oxospiro[3H-isoquinoline-4,1′-cyclopropane]-2-yl)-N-[3-(methoxymethyl)cyclobutyl]acetamide]", "values": [{"measurement": "pIC50", "setting": "[1]", "result": 5.06}]}
{"smiles": "O=C(CN1CC2(CC2)c2cc(Br)ccc2C1=O)Nc1cc2ccccn2n1", "note": "[Example 383]", "values": [{"measurement": "pIC50", "setting": "[1]", "result": 5.91}]}
{"smiles": "CCN1CC[C@@H](NC(=O)CN2CC3(CC3)c3cc(Br)ccc3C2=O)C1", "note": "[Example 384, 2-(6-bromo-1-oxospiro[3H-isoquinoline-4,1′-cyclopropane]-2-yl)-N-[(3R)-1-ethylpyrrolidin-3-yl]acetamide]", "values": [{"measurement": "pIC50", "setting": "[1]", "result": 4.94}]}
{"smiles": "O=C(CN1CC2(CC2)c2cc(Br)ccc2C1=O)Nc1cn2ccccc2n1", "note": "[Example 385]", "values": [{"measurement": "pIC50", "setting": "[1]", "result": 5.74}]}
{"smiles": "O=C(CN1CC2(CC2)c2cc(Br)ccc2C1=O)Nc1nc2c(o1)CCCC2", "note": "[Example 386, 2-(6-bromo-1-oxospiro[3H-isoquinoline-4,1′-cyclopropane]-2-yl)-N-(4,5,6,7-tetrahydro-1,3-benzoxazol-2-yl)acetamide]", "values": [{"measurement": "pIC50", "setting": "[1]", "result": 5.84}]}
{"smiles": "O=C(CN1CC2(CC2)c2cc(Br)ccc2C1=O)NC1CCN(c2cccnn2)CC1", "note": "[Example 387, 2-(6-bromo-1-oxospiro[3H-isoquinoline-4,1′-cyclopropane]-2-yl)-N-(1-pyridazin-3-ylpiperidin-4-yl)acetamide]", "values": [{"measurement": "pIC50", "setting": "[1]", "result": 5.28}]}
{"smiles": "Cc1c(C#N)cnc(NC(=O)CN2CC3(CC3)c3cc(Br)ccc3C2=O)c1F", "note": "[Example 389, 2-(6-bromo-1-oxospiro[3H-isoquinoline-4,1′-cyclopropane]-2-yl)-N-(5-cyano-3-fluoro-4-methylpyridin-2-yl)acetamide]", "values": [{"measurement": "pIC50", "setting": "[1]", "result": 6.26}]}
{"smiles": "Cc1nc(NC(=O)CN2CC3(CC3)c3cc(Br)ccc3C2=O)c(F)cc1C#N", "note": "[Example 390, 2-(6-bromo-1-oxospiro[3H-isoquinoline-4,1′-cyclopropane]-2-yl)-N-(5-cyano-3-fluoro-6-methylpyridin-2-yl)acetamide]", "values": [{"measurement": "pIC50", "setting": "[1]", "result": 5.01}]}
{"smiles": "COc1ncc(F)c(NC(=O)CN2CC3(CC3)c3cc(Br)ccc3C2=O)n1", "note": "[Example 391, 2-(6-bromo-1-oxospiro[3H-isoquinoline-4,1′-cyclopropane]-2-yl)-N-(5-fluoro-2-methoxypyrimidin-4-yl)acetamide]", "values": [{"measurement": "pIC50", "setting": "[1]", "result": 4.65}]}
{"smiles": "N#Cc1cc(F)cnc1NC(=O)CN1CC2(CC2)c2cc(Br)ccc2C1=O", "note": "[Example 392, 2-(6-bromo-1-oxospiro[3H-isoquinoline-4,1′-cyclopropane]-2-yl)-N-(3-cyano-5-fluoropyridin-2-yl)acetamide]", "values": [{"measurement": "pIC50", "setting": "[1]", "result": 5.24}]}
{"smiles": "CCN1CCC12CC(NC(=O)CN1CC3(CC3)c3cc(Br)ccc3C1=O)C2", "note": "(stereo not drawn) [Example 393, 2-(6-bromo-1-oxospiro[3H-isoquinoline-4,1′-cyclopropane]-2-yl)-N-(1-ethyl-1-azaspiro[3.3]heptan-6-yl)acetamide]", "values": [{"measurement": "pIC50", "setting": "[1]", "result": 5.10}]}
{"smiles": "CC(C)(C)OC(=O)N1CCC12CC(NC(=O)CN1CC3(CC3)c3cc(Br)ccc3C1=O)C2", "note": "(stereo not drawn) [Example 394, tert-butyl 6-[[2-(6-bromo-1-oxospiro[3H-isoquinoline-4,1′-cyclopropane]-2-yl)acetyl]amino]-1-azaspiro[3.3]heptane-1-carboxylate]", "values": [{"measurement": "pIC50", "setting": "[1]", "result": 5.28}]}
{"smiles": "N#Cc1cnc(NC(=O)CN2CC3(CC3)c3cc(Br)ccc3C2=O)c(Cl)c1", "note": "[Example 395, 2-(6-bromo-1-oxospiro[3H-isoquinoline-4,1′-cyclopropane]-2-yl)-N-(3-chloro-5-cyanopyridin-2-yl)acetamide]", "values": [{"measurement": "pIC50", "setting": "[1]", "result": 5.86}]}
